From US20240262795A1, “PYRAZINE COMPOUNDS AS INHIBITORS OF FLT3” (Biomea Fusion, Inc., priority 2021, published 2024)
Read-outs that look alike come from different tables or passages of the source.

How the values were obtained:
[1] = test system: MOLM-13; experiment: Proliferation inhibition, CellTiter-Glo, MOLM-13; type: cell-based, human; settings: for IC50: Homo sapiens, MOLM-13 cells
In short: (§1)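 About 10,000 cells per well in RPMI-1640 with 10% FBS. Compounds added 2 h after seeding at eight concentrations in duplicate (0.2% DMSO as 100% proliferation), then incubated ~96 h at 37° C, 5% CO2. ATP measured by CellTiter-Glo luminescence; IC50 from four-parameter logistic fit.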

[2] = test system: MV-4-11; experiment: Proliferation inhibition, CellTiter-Glo, MV-4-11; type: cell-based, human; settings: for IC50: Homo sapiens
In short: as §1

[3] = test system: K-562; experiment: Proliferation inhibition, CellTiter-Glo, K-562; type: cell-based, human; settings: for IC50: Homo sapiens
In short: as §1

[4] = target: T1, WT FLT3 (Homo sapiens, UniProt P36888); experiment: WT FLT3 Lance Ultra TR-FRET kinase assay; type: biochemical
T1 construct: purchased Invitrogen PR4666C
T1 sequence (P36888 564-993 limits assumed): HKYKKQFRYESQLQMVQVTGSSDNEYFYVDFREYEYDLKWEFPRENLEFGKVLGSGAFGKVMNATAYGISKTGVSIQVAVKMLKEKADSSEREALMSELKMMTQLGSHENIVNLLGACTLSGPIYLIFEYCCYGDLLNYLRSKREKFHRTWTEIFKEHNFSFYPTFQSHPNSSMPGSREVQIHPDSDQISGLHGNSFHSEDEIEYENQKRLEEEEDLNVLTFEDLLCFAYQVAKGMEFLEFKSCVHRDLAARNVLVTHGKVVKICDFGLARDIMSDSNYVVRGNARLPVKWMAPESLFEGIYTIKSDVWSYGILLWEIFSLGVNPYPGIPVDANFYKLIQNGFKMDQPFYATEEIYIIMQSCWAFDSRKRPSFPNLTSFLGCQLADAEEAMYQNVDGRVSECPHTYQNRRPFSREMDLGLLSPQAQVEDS
Description: (§2) High throughput 384-well Lance Ultra TR-FRET based kinase assays were established for the WT FLT3 and FLT3-ITD enzymes and employed a ULight-labeled peptide […] and FLT3 proteins labelled with Eu-conjugated antibody […] (WuXi Aptec). The principle of TR-FRET is based on transfer of energy between a donor and acceptor fluorophore that results when the fluorophores are within close proximity (˜100 Å) of each other. Recombinant WT FLT3 (#PR4666C, M.W. 48.6 kDa) was purchased from Invitrogen and FLT3-ITD (FLT3-ITD-W51, #F-12-12CG-10, M.W. 76 kDa) was purchased from Signalchem. Optimal assay conditions for the WT FLT3 enzyme assay were as follows: 0.5 nM FLT3 protein, 50 nM ULight-JAK-1 (Tyr1023) substrate peptide (PerkinElmer #TRF0121), 100 μM ATP, 60 min reaction time. Optimal assay conditions for the FLT3-ITD enzyme assay were as follows: 0.0625 nM FLT3-ITD protein, 50 nM ULight-JAK-1 (Tyr1023) substrate peptide, 50 μM ATP, 90 min reaction time. Briefly, 11 dose 3× serial dilutions were prepared for the test compounds and the reference compound and 100 nanoliters transferred to appropriate wells of 384-well assay plates. Five microliters of 2× enzyme/peptide were added into assay wells, assay plates centrifuged at 1000 rpm for about 30 seconds, sealed with sealing film and incubated for 30 min at 23° C. Assay buffer comprised 50 mM HEPES (pH 7.5), 1 mM EDTA, 0.01% Brij-35, 10 mM MgCl2 and 2 mM DTT. Next 5 μl of a 2× ATP mixture were added into the assay wells and the plates centrifuged at 1000 rpm about 30 seconds, sealed with sealing film and incubated for 23° C. for appropriate duration. Following assay incubation (30 min for WT FLT3 and 60 min for FLT3-ITD) 10 μl 2× Detection Mixture (Eu-W1024 Anti-phosphotyrosine (PT66) 2 nM and EDTA 10 mM) was added to assay wells, assay plates centrifuge at 1000 rpm about 1 minutes, sealed with sealing film and incubated at 23° C. for 60 minutes. Assay plates were read on a Perkin Elmer Envision reader at two wavelengths (665/615) and the ratio of […] calculated.
(§3) Data was expressed as % of inhibition relative to the vehicle control and calculated as follows:
(§4) Results were analyzed by XLFIT5 as % inhibition vs. log [compound concentration] and IC50 values were calculated by non-linear regression using four parameter-logistic equation. Fit=(A+((B−A)/(1+((C/x)^D)))). Res=(y−fit).

[5] = target: T2, FLT3-ITD (Homo sapiens, UniProt P36888, DUP595-601); experiment: FLT3-ITD Lance Ultra TR-FRET kinase assay; type: biochemical
T2 construct: purchased Signalchem F-12-12CG-10
T2 sequence (P36888 with tags, fused parts or gaps DUP595-601 limits assumed): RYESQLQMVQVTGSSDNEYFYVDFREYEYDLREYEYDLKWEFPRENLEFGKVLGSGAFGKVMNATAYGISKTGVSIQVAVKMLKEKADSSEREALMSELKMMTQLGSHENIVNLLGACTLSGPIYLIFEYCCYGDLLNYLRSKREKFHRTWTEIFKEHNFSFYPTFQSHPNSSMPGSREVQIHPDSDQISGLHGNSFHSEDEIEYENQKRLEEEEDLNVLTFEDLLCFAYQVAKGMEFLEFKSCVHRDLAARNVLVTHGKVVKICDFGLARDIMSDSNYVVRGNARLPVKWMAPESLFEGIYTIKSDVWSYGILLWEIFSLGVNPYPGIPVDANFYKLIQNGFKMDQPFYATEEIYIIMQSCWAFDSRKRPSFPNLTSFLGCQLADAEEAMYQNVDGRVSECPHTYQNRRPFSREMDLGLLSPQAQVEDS
Description: as §2, §3, §4

[6] = 96 h, IC50 (4 days), CellTiter-Glo, read-out: MOLM-13 IC50
[7] = MV4-11, 96 h, MV-4:11 cells, IC50 (4 days), CellTiter-Glo, read-out: MV-4:11 IC50
[8] = K562, 96 h, K-562 cells, IC50 (4 days), CellTiter-Glo, read-out: K-562 IC50
[9] = read-out: IC50 in MOLM-13 cells
[10] = MV4-11 cells, read-out: IC50 in MV4-11 cells
[11] = K562 cells, read-out: IC50 in K562 cells

Compound | IC50 [1, 6] [nM] | IC50 [2, 7] [nM] | IC50 [3, 8] [nM] | IC50 [4] [nM] | IC50 [5] [nM] | Ymax in MOLM-13 cells [1] [%] | IC50 [1, 9] [nM] | IC50 [2, 10] [nM] | Ymax in MV4-11 cells ([2]; MV4-11 cells) [%] | IC50 [3, 11] [nM] | Ymax in K562 cells ([3]; K562 cells) [%]
CCc1nc(C(N)=O)c(Nc2ccnc(CCNC(=O)CN(C)C(=O)/C=C/CN3CCC3)c2)nc1C1CC1 [Compound 520, (E)-3-((2-(2-(2-(4-(azetidin-1-yl)-N-methylbut-2-enamido)acetamido)ethyl)pyridin-4-yl)amino)-5-cyclopropyl-6-ethylpyrazine-2-carboxamide] | 1 to 10 | 1 to 10 | > 500 | > 1 | 0.501 to 1 |  |  |  |  |  | 
CCc1nc(C(N)=O)c(Nc2cccc(CCNC(=O)[C@@H](C)N(C)C(=O)/C=C/CN(C)C)c2)nc1N(C)C(C)C [Compound 302, (R,E)-3-((3-(2-(2-(4-(dimethylamino)-N-methylbut-2-enamido)propanamido)ethyl)phenyl)amino)-6-ethyl-5-(isopropyl (methyl)amino) pyrazine-2-carboxamide] | 1 to 10 | < 1 | > 500 | > 1 | > 1 |  |  |  |  |  | 
C=CC(=O)N(C)[C@@H](C)C(=O)NCCc1cccc(Nc2nc(N(C)C(C)C)c(CC)nc2C(N)=O)c1 [Compound 315, (S)-6-ethyl-5-(isopropyl(methyl)amino)-3-((3-(2-(2-(N-methylacrylamido)propanamido)ethyl)phenyl)amino)pyrazine-2-carboxamide] | 1 to 10 | 1 to 10 | > 500 | > 1 | 0.501 to 1 |  |  |  |  |  | 
C=CC(=O)N(C)CC(=O)NC[C@H](C)c1cccc(Nc2nc(N(C)CC)c(CC)nc2C(N)=O)c1 [Compound 513, (R)-6-ethyl-5-(ethyl (methyl)amino)-3-((3-(1-(2-(N-methylacrylamido)acetamido)propan-2-yl)phenyl)amino) pyrazine-2-carboxamide] | 1 to 10 | 10 to 100 | > 500 | 0.501 to 1 | 0.201 to 0.5 |  |  |  |  |  | 
Cc1nc(C(N)=O)c(Nc2cccc(CCNC(=O)[C@H](C)N(C)C(=O)/C=C/CN(C)C)c2)nc1C(C)C [Compound 305, (S,E)-3-((3-(2-(2-(4-(dimethylamino)-N-methylbut-2-enamido)propanamido)ethyl)phenyl)amino)-5-isopropyl-6-methylpyrazine-2-carboxamide] | 1 to 10 | 1 to 10 | > 500 | > 1 | > 1 |  |  |  |  |  | 
CCc1nc(C(N)=O)c(Nc2ccnc(CCNC(=O)CN(C)C(=O)/C=C/CN(C)C)c2)nc1N(C)CC [Compound 606, (E)-3-((2-(2-(2-(4-(dimethylamino)-N-methylbut-2-enamido)acetamido)ethyl)pyridin-4-yl)amino)-6-ethyl-5-(ethyl(methyl)amino)pyrazine-2-carboxamide] | 1 to 10 | < 1 | > 500 | 0.501 to 1 | 0.201 to 0.5 |  |  |  |  |  | 
C=CC(=O)Nc1cccc(Nc2nc(N3CCC[C@H](NC(=O)c4ccc(C5CC5)cc4)[C@@H]3C)cnc2C(N)=O)c1 [Compound C-1, reference compound] | > 500 | > 500 | > 500 | > 1 | > 1 | 0 | > 100 | > 100 | 9.7 | > 100 | 0
CCc1nc(C(N)=O)c(Nc2cccc([C@@H](C)CNC(=O)CN(C)C(=O)/C=C/CN3CCC3)c2)nc1C(C)C [Compound 509, (R,E)-3-((3-(1-(2-(4-(azetidin-1-yl)-N-methylbut-2-enamido)acetamido)propan-2-yl)phenyl)amino)-6-ethyl-5-isopropylpyrazine-2-carboxamide] | < 1 | 1 to 10 | > 500 | 0.201 to 0.5 | 0.501 to 1 |  |  |  |  |  | 
CCc1nc(C(N)=O)c(Nc2cccc(CCNC(=O)[C@H](C)N(C)C(=O)/C=C/CN(C)C)c2)nc1N(C)CC [Compound 221, (S,E)-3-((3-(2-(2-(4-(dimethylamino)-N-methylbut-2-enamido)propanamido)ethyl)phenyl)amino)-6-ethyl-5-(ethyl(methyl)amino)pyrazine-2-carboxamide] | < 1 | < 1 | > 500 | 0.501 to 1 | 0.101 to 0.2 |  |  |  |  |  | 
CCN(C)c1nc(Nc2cccc(CCNC(=O)[C@H](C)N(C)C(=O)/C=C/CN(C)C)c2)c(C(N)=O)nc1C [Compound 253, (S,E)-3-((3-(2-(2-(4-(dimethylamino)-N-methylbut-2-enamido)propanamido)ethyl)phenyl)amino)-5-(ethyl(methyl)amino)-6-methylpyrazine-2-carboxamide] | 1 to 10 | < 1 | > 500 | 0.501 to 1 | 0.201 to 0.5 |  |  |  |  |  | 
CCc1nc(C(N)=O)c(Nc2cc(F)cc(CCNC(=O)[C@H](C)N(C)C(=O)/C=C/CN(C)C)c2)nc1C1CC1 [Compound 159, (S,E)-5-cyclopropyl-3-((3-(2-(2-(4-(dimethylamino)-N-methylbut-2-enamido)propanamido)ethyl)-5-fluorophenyl)amino)-6-ethylpyrazine-2-carboxamide] | 1 to 10 | < 1 | > 500 | 0.501 to 1 | 0.201 to 0.5 |  |  |  |  |  | 
C=CC(=O)Nc1cc(Nc2nc(NC3CCOCC3)c(CC)nc2C(N)=O)ccc1N1CCC(N2CCN(C)CC2)CC1 [Compound C-2, reference compound] | 10 to 100 | 1 to 10 | 10 to 100 | 0.501 to 1 | 0.501 to 1 | 98.6 | 19.2 | 5 | 99.1 | 44 | 95.8
CCc1nc(C(N)=O)c(Nc2cccc(CCNC(=O)CN(C)C(=O)/C=C/CN3CCC3)c2)nc1CC(C)C [Compound 601, (E)-3-((3-(2-(2-(4-(azetidin-1-yl)-N-methylbut-2-enamido)acetamido)ethyl)phenyl)amino)-6-ethyl-5-isobutylpyrazine-2-carboxamide] | 1 to 10 | < 1 | > 500 | > 1 | 0.501 to 1 |  |  |  |  |  | 
